The target in series [1] is T1, Cytochrome P450 1A2 (Homo sapiens, UniProt P05177).
T1 sequence (P05177 whole entry): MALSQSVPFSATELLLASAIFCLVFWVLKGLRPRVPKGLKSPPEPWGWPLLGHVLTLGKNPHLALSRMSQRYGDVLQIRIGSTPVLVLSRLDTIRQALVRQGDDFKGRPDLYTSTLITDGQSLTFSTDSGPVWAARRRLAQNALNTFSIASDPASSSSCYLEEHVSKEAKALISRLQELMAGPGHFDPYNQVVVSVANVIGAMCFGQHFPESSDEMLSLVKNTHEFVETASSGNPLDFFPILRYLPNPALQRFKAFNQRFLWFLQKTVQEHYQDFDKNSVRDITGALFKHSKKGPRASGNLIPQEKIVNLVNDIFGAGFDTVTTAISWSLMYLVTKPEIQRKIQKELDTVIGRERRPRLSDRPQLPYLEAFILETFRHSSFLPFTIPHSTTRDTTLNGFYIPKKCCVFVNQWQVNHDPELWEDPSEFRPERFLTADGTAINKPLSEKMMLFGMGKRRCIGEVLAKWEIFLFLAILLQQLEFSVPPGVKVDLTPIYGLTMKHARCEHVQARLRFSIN
In words: Inhibition of human recombinant CYP1A2. Conditions: for log(1/IC50): human; call rule not given here.

The target in series [2] is T2, Cytochrome P450 3A4 (Homo sapiens, UniProt P08684). In words: Inhibition of human recombinant CYP3A4. It counts as ADME.
T2 sequence (P08684 whole entry): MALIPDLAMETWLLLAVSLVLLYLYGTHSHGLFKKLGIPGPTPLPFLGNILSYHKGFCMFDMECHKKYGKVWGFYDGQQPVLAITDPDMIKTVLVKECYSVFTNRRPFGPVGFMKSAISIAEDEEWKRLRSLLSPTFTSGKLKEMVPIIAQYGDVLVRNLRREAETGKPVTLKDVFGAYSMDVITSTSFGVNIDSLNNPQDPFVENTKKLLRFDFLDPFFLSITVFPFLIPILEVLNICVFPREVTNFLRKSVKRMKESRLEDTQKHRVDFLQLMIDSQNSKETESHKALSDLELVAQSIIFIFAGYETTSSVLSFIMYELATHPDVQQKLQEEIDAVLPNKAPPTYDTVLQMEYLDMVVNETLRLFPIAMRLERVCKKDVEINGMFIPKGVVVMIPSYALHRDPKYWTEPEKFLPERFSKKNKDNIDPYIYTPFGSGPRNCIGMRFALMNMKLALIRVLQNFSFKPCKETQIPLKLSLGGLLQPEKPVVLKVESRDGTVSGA
Series [3] has as its target T3, Cytochrome P450 2C9 (Homo sapiens, UniProt P11712). The experiment in a line: Inhibition of human recombinant CYP2C9 in presence of reduced glutathione. It counts as ADME. Conditions: recombinant enzyme.
Series [4] concerns the target T4, Cytochrome P450 2B6 (Homo sapiens, UniProt P20813).
T4 sequence (P20813 whole entry): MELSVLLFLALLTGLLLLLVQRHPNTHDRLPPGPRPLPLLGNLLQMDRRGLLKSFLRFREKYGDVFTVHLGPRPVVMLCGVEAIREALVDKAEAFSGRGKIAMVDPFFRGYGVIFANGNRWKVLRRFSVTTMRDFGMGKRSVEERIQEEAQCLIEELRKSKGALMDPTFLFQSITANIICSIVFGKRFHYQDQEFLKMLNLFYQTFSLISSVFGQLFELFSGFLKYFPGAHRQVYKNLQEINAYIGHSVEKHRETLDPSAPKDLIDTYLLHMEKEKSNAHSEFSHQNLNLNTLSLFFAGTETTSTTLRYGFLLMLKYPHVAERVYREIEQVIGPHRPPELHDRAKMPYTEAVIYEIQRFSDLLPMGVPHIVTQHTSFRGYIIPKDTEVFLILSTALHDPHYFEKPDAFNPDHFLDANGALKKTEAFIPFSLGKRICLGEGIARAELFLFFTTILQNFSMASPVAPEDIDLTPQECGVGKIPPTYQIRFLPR
In words: Inhibition of human recombinant CYP2B6. It counts as ADME.

Series [5] deals with T3, Cytochrome P450 2C9. The experiment in a line: Inhibition of human recombinant CYP2C9. It counts as ADME.
Series [6] addresses T5, Cytochrome P450 2D6 (Homo sapiens, UniProt P10635). The experiment in a line: Inhibition of human recombinant CYP2D6 in presence of reduced glutathione. Conditions: recombinant enzyme. Type of series: ADME.
The target of series [7] is T5, Cytochrome P450 2D6. In words: Inhibition of human recombinant CYP2D6. It counts as ADME.
The target in series [8] is T6, CYP2B6 (Homo sapiens, UniProt P20813).
T6 sequence (P20813 whole entry): T4 sequence (P20813 whole entry)
In words: Inhibition of human recombinant CYP2B6 at 100 uM. It counts as ADME.

Series [9] has as its target T2, Cytochrome P450 3A4. In words: Inhibition of human recombinant CYP3A4 in presence of reduced glutathione. It counts as ADME. Conditions: recombinant enzyme.
Series [10] deals with T4, Cytochrome P450 2B6. The experiment in a line: Inhibition of human recombinant CYP2B6 in presence of reduced glutathione. Type of series: ADME. To be noted: recombinant enzyme.

The structures appear in SMILES notation. Bounds are passed on as bounds.

T3 sequence (P11712 whole entry): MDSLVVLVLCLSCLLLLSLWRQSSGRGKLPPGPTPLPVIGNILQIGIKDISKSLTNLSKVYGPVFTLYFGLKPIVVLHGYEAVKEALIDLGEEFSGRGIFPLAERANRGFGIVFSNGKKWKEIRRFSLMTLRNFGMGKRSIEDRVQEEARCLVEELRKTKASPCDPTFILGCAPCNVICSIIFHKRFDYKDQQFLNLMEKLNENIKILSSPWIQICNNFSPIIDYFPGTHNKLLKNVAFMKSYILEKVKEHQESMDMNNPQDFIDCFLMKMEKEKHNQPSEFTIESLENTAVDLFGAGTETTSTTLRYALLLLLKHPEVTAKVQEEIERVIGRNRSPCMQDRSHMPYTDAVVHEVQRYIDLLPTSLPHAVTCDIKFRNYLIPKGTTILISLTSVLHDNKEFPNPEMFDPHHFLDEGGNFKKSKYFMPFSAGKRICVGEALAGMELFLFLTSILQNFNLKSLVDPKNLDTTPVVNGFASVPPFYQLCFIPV
T5 sequence (P10635 whole entry): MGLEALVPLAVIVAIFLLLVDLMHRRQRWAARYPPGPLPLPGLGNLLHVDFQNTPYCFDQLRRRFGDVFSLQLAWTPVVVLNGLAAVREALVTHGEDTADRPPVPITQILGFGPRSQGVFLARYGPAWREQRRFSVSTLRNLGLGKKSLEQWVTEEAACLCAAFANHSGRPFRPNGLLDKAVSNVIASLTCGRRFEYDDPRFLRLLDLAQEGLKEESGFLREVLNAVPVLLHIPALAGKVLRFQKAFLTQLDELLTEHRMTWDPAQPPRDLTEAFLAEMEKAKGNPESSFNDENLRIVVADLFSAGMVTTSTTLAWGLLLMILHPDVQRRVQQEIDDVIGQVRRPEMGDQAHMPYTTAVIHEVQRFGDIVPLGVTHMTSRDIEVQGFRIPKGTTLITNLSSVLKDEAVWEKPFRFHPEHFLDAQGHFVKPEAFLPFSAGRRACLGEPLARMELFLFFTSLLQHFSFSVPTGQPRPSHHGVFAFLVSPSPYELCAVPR

The term IC50 denotes the concentration at which inhibition is half-maximal. In general, inhibition refers to the relative decrease from the control value, in per cent. Take `Cc1cc(/C=C/C(=O)/C=C/c2cc(C)c(O)c(C)c2)cc(C)c1O`: the IC50 in series [1] is 30.4 µM; in [2] it was 40.3 µM; in series [4] it was 44.8 µM; in [5], 62.8 µM; in [7], 13.2 µM. The “log(1/IC50)” value in series [1] (recombinant CYP1A2) came out at 1.517. Besides, the Activity result in series [3], in [6], in series [9] and in series [10] was “Not Active” throughout. Further, the inhibition at 100 µM in series [8] was more than 20%.

As for `COc1cc(/C=C/C(=O)/C=C/c2cc(OC)c(O)c(OC)c2)cc(OC)c1O`, the IC50 in [1] was determined as 75.2 µM; in series [2] it was 13.2 µM; in series [4], 24.8 µM; in series [5], 59 µM; in series [7], 82.7 µM. Also, in series [1] (recombinant enzyme), the “log(1/IC50)” value was 1.124 mM. Further, the Activity result in series [3], in series [6], in series [9] and in series [10] was “Not Active” each time. The inhibition at 100 µM in series [8] is more than 20%.
